Experiments:
primary cortical neurons = experiment: LDH release of primary cortical neurons subjected to oxygen glucose deprivation (OGD); type: cell-based, mouse; conditions: comparison with F4; concentration not given
Method: Lactate dehydrogenase is a stable cytosolic enzyme that is released by necrotic cells upon membrane damage. The membrane integrity of cortical neurons was assayed by measuring the release of lactate dehydrogenase (LDH) using the Cytotoxicity Detection Kit^PLUS (Roche Applied Science). This assay kit detects LDH released into culture supernates by a coupled enzymatic reaction. Positive (100% LDH release) and negative (spontaneous LDH release) controls were prepared in triplicate according to the manufacturer's instructions. Primary cortical neuron cultures were prepared from cerebral cortices of embryonic day 16 CD1 mouse embryos. Cortical neuron cultures were exposed to vehicle (0.1% dimethyl sulfoxide (DMSO)) or F4 at concentrations of 1, 0.1 or 0.01 μg/mL in serum-free conditions for a period of 12 h before they were subjected to oxygen glucose deprivation (OGD). The neurons were exposed to vehicle or F4 at concentrations of 1, 0.1 or 0.01 μg/mL phenolics throughout the 12 h period of OGD. Following, cell culture supernates were collected for determination of released LDH. Absorbance was measured at 490 nm with a reference wavelength of 620 nm. Percentage of total LDH release was calculated by following the instructions provided by the manufacturer. Background was subtracted and LDH release in each sample was expressed as a percentage of the positive control.

[1] = humans, 1 g per day for 1 month; cited from earlier work

COc1cc(-c2oc3cc(O)cc(O)c3c(=O)c2O[C@@H]2O[C@H](C(=O)O)[C@@H](O)[C@H](O)[C@H]2O)ccc1O [IR3GlcA]
reduction of death of primary cortical neurons subjected to OGD (F4 components and metabolites, FIG. 7) (primary cortical neurons): no significant reduction

O=c1c(O[C@@H]2O[C@H](CO)[C@@H](O)[C@H](O)[C@H]2O)c(-c2ccc(O)c(O)c2)oc2cc(O)cc(O)c12 [Fraction Q3G, quercetin 3-O-glucoside]
reduction of death of primary cortical neurons subjected to OGD (F4 components and metabolites, FIG. 7) (primary cortical neurons): no significant reduction

O=c1c(O)c(-c2ccc(O)c(O)c2)oc2cc(O)cc(O)c12 [Q, Quercetin]
reduction of death of primary cortical neurons subjected to OGD (F4 components and metabolites, FIG. 7) (primary cortical neurons): no significant reduction | safety [1]: safe

From patent publication US9511107B2, “Phenolic compositions derived from apple skin and uses thereof” (priority 2010, dated 2016)
